Structures can show the parent of a compound that is named as a salt.
Columns and labels:
Experiment in all cases: Assay B: in vitro antibacterial activity, broth microdilution MIC (NCCLS)
Assay type in all cases: cell-based
[1] = test system: Staphylococcus aureus ATCC 6538P; conditions: Table 2, Assay B, cation-adjusted Mueller Hinton broth, 35° C., 16 to 20 hr; code A = Staphylococcus aureus ATCC 6538P; unit assumed
Method in brief: (§1)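 Serial two-fold dilutions in cation-adjusted Mueller Hinton broth; inoculum ~5×10^5 CFU/mL from overnight cultures; 35° C, ambient air, 16 to 20 hr. MIC read visually as lowest concentration completely inhibiting growth. S. pneumoniae: 3% lysed horse blood, 20 to 24 hr; H. influenzae: 5 g/L yeast extract, 0.3 mmol/L hematin, 15 mg/L NAD, 20 to 24 hr.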

Escherichia coli JUHL = conditions: Table 2, Assay B, cation-adjusted Mueller Hinton broth, 35° C., 16 to 20 hr; code D = Escherichia coli JUHL; unit assumed
Method in brief: as §1

[2] = test system: Haemophilus influenzae DILL AMP R; conditions: Table 2, Assay B, Mueller Hinton broth with yeast extract, hematin and NAD, 20 to 24 hr; code E = Haemophilus influenzae DILL AMP R; unit assumed
Method in brief: as §1

[3] = test system: Enterococcus faecalis PIU 1967; conditions: Table 2, Assay B, cation-adjusted Mueller Hinton broth, 35° C., 16 to 20 hr; code B = Enterococcus faecalis PIU 1967; unit assumed
Method in brief: as §1

[4] = test system: Streptococcus pneumoniae ATCC 6303; conditions: Table 2, Assay B, Mueller Hinton broth with 3% lysed horse blood, 20 to 24 hr; code F = Streptococcus pneumoniae ATCC 6303; unit assumed
Method in brief: as §1

Row | Antibacterial Activity (MIC's), A [1] | Antibacterial Activity (MIC's), D (Escherichia coli JUHL) | Antibacterial Activity (MIC's), E [2] | Antibacterial Activity (MIC's), B [3] | Antibacterial Activity (MIC's), F [4] | SMILES
1 | ≤ 0.004 µg/mL | 0.06 µg/mL | 0.03 µg/mL | 0.03 µg/mL | ≤ 0.004 µg/mL | Cc1c(F)c(-c2cc3c(s2)C(N)CCC3)nc2c1c(=O)c(C(=O)O)cn2C1CC1.Cl (stereo not shown) [Example 371, 7-(7-amino-4,5,6,7-tetrahydro-1-benzothien-2-yl)-1-cyclopropyl-6-fluoro-5-methyl-4-oxo-1,4-dihydro-1,8-naphthyridine-3-carboxylic acid hydrochloride]
2 | 0.015 µg/mL | 0.25 µg/mL | 0.06 µg/mL | 0.125 µg/mL | 0.03 µg/mL | CNC1CCCc2sc(-c3ccc4c(=O)c(C(=O)O)cn(C5CC5)c4c3OC)cc21.Cl (stereo not shown) [Example 77, 1-cyclopropyl-8-methoxy-7-[4-(methylamino)-4,5,6,7-tetrahydro-1-benzothien-2-yl]-4-oxo-1,4-dihydro-3-quinolinecarboxylic acid hydrochloride]
3 | 0.004 µg/mL | 0.25 µg/mL | 0.03 µg/mL | 0.25 µg/mL | 0.06 µg/mL | CNC1CCCc2cc(-c3c(F)cc4c(=O)c(C(=O)O)cn(C5CC5)c4c3OC)sc21.Cl (stereo not shown) [Example 246, 1-cyclopropyl-6-fluoro-8-methoxy-7-(7-(methylamino)-4,5,6,7-tetrhydro-1-benzothien-2-yl)-4-oxo-1,4-dihydro-3-quinolinecarboxiylic acid hydrochloride]
4 | 0.5 µg/mL | 1 µg/mL | 0.125 µg/mL | 0.25 µg/mL | 0.5 µg/mL | COc1c(-c2cc3c(s2)CCCC3CN(C)C)ccc2c(=O)c(C(=O)O)cn(C3CC3)c12 (stereo not shown) [Example 127, 1-cyclopropyl-7-(4-((dimethylamino)methyl)-4,5,6,7-tetrahydro-1-benzothien-2-yl)-8-methoxy-4-oxo-1,4-dihydro-3-quinolinecarboxylic acid]
5 | < 0.004 µg/mL | 1 µg/mL | 0.03 µg/mL | 0.5 µg/mL | 0.03 µg/mL | COc1c(-c2cc3c(s2)CCCC3=NNC(C)=O)ccc2c(=O)c(C(=O)O)cn(C3CC3)c12 [Example 96, 7-((4E/Z)-4-(acetylhydrazono)-4,5,6,7-tetrahydro-1-benzothien-2-yl)-1-cyclopropyl-8-methoxy-4-oxo-1,4-dihydro-3-quinolinecarboxylic acid]
6 | 0.015 µg/mL | 0.06 µg/mL | 0.03 µg/mL | 0.06 µg/mL | 0.03 µg/mL | COc1c(-c2cc3c(s2)CCC(N)C3)ccc2c(=O)c(C(=O)O)cn(C3CC3)c12.Cl (stereo not shown) [Example 76, 7-(5-amino-4,5,6,7-tetrahydro-1-benzothien-2-yl)-1-cyclopropyl-8-methoxy-4-oxo-1,4-dihydro-3-quinolinecarboxylic acid hydrochloride]
7 | ≤ 0.004 µg/mL | 0.03 µg/mL | 0.008 µg/mL | 0.03 µg/mL | 0.008 µg/mL | Cl.NC1CCCc2sc(-c3ccc4c(=O)c(C(=O)O)cn(C5CC5)c4c3Cl)cc21 (stereo not shown) [Example 329, 7-(4-amino-4,5,6,7-tetrahydro-1-benzothien-2-yl)-8-chloro-1-cyclopropyl-4-oxo-1,4-dihydroquinoline-3-carboxylic acid hydrochloride]

Row | SMILES | Antibacterial Activity (MIC's), A [1] | Antibacterial Activity (MIC's), D (Escherichia coli JUHL) | Antibacterial Activity (MIC's), E [2] | Antibacterial Activity (MIC's), B [3] | Antibacterial Activity (MIC's), F [4]
8 | CNC1CCCc2sc(-c3nc4c(cc3F)c(=O)c(C(=O)O)cn4C3CC3)cc21 (stereo not shown) [Example 108, 1-cyclopropyl-6-fluoro-7-(4-(methylamino)-4,5,6,7-tetrahydro-1-benzothien-2-yl)-4-oxo-1,4-dihydro[1,8]naphthyridine-3-carboxylic acid hydrochloride] | 0.015 µg/mL | 0.03 µg/mL | 0.008 µg/mL | 1 µg/mL | 0.25 µg/mL
